# Measurements from patent US11186873B2, “Combination method for treating cancer by targeting immunoglobulin superfamily member 1 (IGSF1) and mesenchymal-epithelial transition factor (MET)” (WELLMARKER BIO CO., LTD., priority 2014, dated 2021).
# Experiments:
# [1] = system: gastric cancer cell lines SNU638 and MKN45; assay: Apoptosis by MET inhibitor, trypan blue exclusion, gastric cancer cells; format: cell-based, human
# cleaved caspase 3 = assay: Expression of cleaved caspase 3 after MET inhibitor treatment; format: cell-based, human; conditions: treatment at each concentration; SNU638 and MKN45
# phosphorylation of MET = assay: Western blot of MET phosphorylation after inhibiting IGSF1 by siRNA/shRNA; format: cell-based, human; conditions: AGS, MKN45, SNU638 and HCC827, concentration-dependent manner, FIG. 2E
# Description: (§1) To perform Western blot analysis, proteins isolated from the respective cells were separated by SDS-PAGE and transferred to membranes (PolyScreen membranes; New England Nuclear, Boston, Mass., USA). The proteins were incubated with various antibodies (anti-phospho MET, E-cadherin (Cell signaling Technology, Beverly, Mass., USA), anti-MET, anti-r-tubulin (Santa Cruz Biotechnology, Santa Cruz, Calif., USA), anti-IGSF1 (Abnova, Jhouzih, Taipei, Taiwan)) at 4° C. for 12 hours and then washed with 1× TBS-T buffer three times for 10 minutes. The proteins were incubated with appropriate anti-rabbit-HRP or anti-mouse-HRP secondary antibody at room temperature for 2 hours and washed with 1× TBS-T buffer three times for 10 minutes, and then the expression of the proteins was detected using ECL solution (GE Healthcare Bio-Sciences Corp.). […]
# (§2) To analyze the changes in MET phosphorylation by inhibition of the expression of IGSF1 as a marker for the induction of HGF-independent MET phosphorylation in human gastric cancer cell line (AGS, MKN45, SNU638) and lung cancer cell line (HCC827), the present inventors inhibited the expression of IGSF1 or MET by the siRNA method and then determined the changes in phosphorylation of the MET protein by western blot analysis.
# MET [2] = assay: Real-time PCR of MET expression after shRNA inhibition of IGSF1; format: cell-based, human; conditions: RNA level, SNU638 and MKN45, inhibition of IGSF1 by shRNA method
# Description: (§3) The present inventors inhibited the expression of IGSF1 or MET by the shRNA method in human gastric cancer cell lines SNU638 and MKN45 and then determined the changes in expression of each gene by real-time PCR.
# [3] = system: human gastric cancer cell lines SNU638 and MKN45; assay: Cell growth (cell counting) after shRNA, gastric cancer cells; format: cell-based; conditions: number of cells counted for 3 days, shRNA method
# Description: The present inventors inhibited the expression of IGSF1 or MET by the shRNA method in human gastric cancer cell lines SNU638 and MKN45 and then determined the inhibition of cell growth.
# [4] = system: human gastric cancer cell lines SNU638 and MKN45; assay: Colony forming assay after inhibition of IGSF1 or MET; format: cell-based
# Description: Moreover, the expression of IGSF1 or MET in human gastric cancer cell lines SNU638 and MKN45 was inhibited, and then the degree of the inhibition of cell growth was determined by colony forming assay.
# [5] = system: human lung cancer cell lines HCC827 and HCC194; assay: Cell growth (cell counting) after shRNA, lung cancer cells; format: cell-based; conditions: number of cells at 24 hours and 48 hours, shRNA method
# Description: The present inventors inhibited the expression of IGSF1 or the expression of MET by the shRNA method in human lung cancer cell lines HCC827 and HCC194 and then determined the inhibition of cell growth.
# IGSF1 [6] = assay: Western blot of IGSF1 expression after MET shRNA; format: cell-based, human; conditions: MET shRNA concentration-dependent manner, FIG. 2E
# Description: as §1, §2
# IGSF1 [7] = assay: Real-time PCR of IGSF1 expression after shRNA inhibition of MET; format: cell-based, human; conditions: RNA level, SNU638 and MKN45, inhibition of MET by shRNA method
# Description: as §3
# [8] = system: human gastric cancer cell lines SNU638 and MKN45; assay: Invasion chamber assay after siRNA, gastric cancer cells; format: cell-based; conditions: siRNA method
# Description: (§4) HGF-independent human gastric cancer cell lines MKN45 and SNU638 and lung cancer cell line HCC827 were transfected with IGSF1 siRNA or MET siRNA for 48 hours. Plate inserts (BD Biosciences) of […] pore size were placed in a 24-well plate, and each 100 μl of matrigel (BD Biosciences) was seeded on each at a concentration of 200 μg/ml and incubated in a CO2 incubator for 30 minutes. 2.5×10^4 cells transfected with MET or IGSF1 siRNA were placed in the insert plate in a total volume of 100 μl in serum-free media. 400 μl of growth media (RPMI1640+10% FBS) were seeded on the bottom plate and cultured in a CO2 incubator for 24 hours. After 24 hours, the insert plate was washed with PBS, and the remaining cells were wiped with a cotton swab and fixed in 10% formalin for 20 minutes. After washing with purified water, the cells were stained with 0.01% crystal violet solution for 20 minutes and washed with warm water, and then the number of migrated cells was counted. […] The number of cells migrated through the insert plate in the control and the gastric cancer and lung cancer cell lines transfected with MET or IGSF1 siRNA was counted and verified.
# (§5) The present inventors inhibited the expression of IGSF1 by the siRNA method in human gastric cancer cell lines SNU638 and MKN45 and then analyzed the degree of the inhibition of invasion and migration by invasion chamber assay and wound healing assay.
# [9] = system: human gastric cancer cell lines SNU638 and MKN45; assay: Wound healing / migration assay after siRNA, gastric cancer cells; format: cell-based; conditions: siRNA method
# Description: as §4, §5
# MET [10] = assay: Luciferase 3'UTR reporter assay in human 293 cell line, MET; format: cell-based; conditions: wild-type vs mutated 3'UTR luciferase plasmids
# IGSF1 [11] = assay: Luciferase 3'UTR reporter assay in human 293 cell line, IGSF1; format: cell-based; conditions: wild-type vs mutated 3'UTR luciferase plasmids
# IGSF1 [12] = assay: IGSF1 expression after miR-34a/miR-34c or antagomir transfection, gastric cancer cells; format: cell-based, human
# Description: (§6) Moreover, as shown in the lower panel of FIG. 6B, as a result of analyzing the expression of MET and IGSF1 after transfecting miR-34a or miR-34c into human gastric cancer cell lines MKN45 and SNU638, it was observed that the expression of IGSF1 as a marker for the induction of HGF-independent MET phosphorylation and the expression of c-MET were inhibited by miR-34a or miR-34c.
# MET [13] = assay: MET expression after miR-34a/miR-34c or antagomir transfection, gastric cancer cells; format: cell-based, human; conditions: for expression of c-MET: MKN45 and SNU638, lower panel of FIG. 6B; for expression of MET: cell line SNU638, real-time PCR, upper panel of FIG. 6B
# Description: as §6
# [14] = system: human gastric cancer cell line SNU638; assay: Cell growth after miRNA transfection, trypan blue exclusion; format: cell-based; conditions: 300 nM, compared with the control group
# Description: Human miRNA-34a (SEQ ID NO: 1; […]) or miRNA-34c (SEQ ID NO: 2; […]) was purchased from Thermo Fisher Scientific. 4×10^5 HGF-independent human gastric cancer SNU638 cells were seeded and transfected with 300 nM of miRNA-34a or miRNA-34c, and then the number of cells was counted using trypan blue exclusion method for 0, 1, 2 and 3 days.
# 4×10^5 HGF-independent human gastric cancer SNU638 cells or 3×10^5 MKN45 cells were transfected with 300 nM of miRNA-34a (SEQ ID NO: 1) or miRNA-34c (SEQ ID NO: 2), and then the number of cells was counted using trypan blue exclusion method for 0, 1, 2 and 3 days.
# [15] = system: relevant signaling pathway; assay: Expression of the relevant signaling pathway after miRNA transfection; format: cell-based; conditions: human gastric cancer cell line; lower panel of FIG. 6C
# [16] = system: gastric cancer cell lines SNU638 and MKN45; assay: Cell migration after miRNA or antagomir transfection, gastric cancer cells; format: cell-based, human; conditions: for migration of cells: SNU638, lower panel of FIG. 6D; for cell migration: SNU638 and MKN45, upper panel of FIG. 6D
# gastric cancer cell line = assay: Cell invasion after miRNA or antagomir transfection, gastric cancer cells; format: cell-based, human; conditions: middle panel of FIG. 6D
# Description: […] Plate inserts (BD Biosciences) of […] pore size were placed in a 24-well plate, and each 100 μl of matrigel (BD Biosciences) was seeded on each at a concentration of 200 μg/ml and incubated in a CO2 incubator for 30 minutes. […] 400 μl of growth media (RPMI1640+10% FBS) were seeded on the bottom plate and cultured in a CO2 incubator for 24 hours. After 24 hours, the insert plate was washed with PBS, and the remaining cells were wiped with a cotton swab and fixed in 10% formalin for 20 minutes. After washing with purified water, the cells were stained with 0.01% crystal violet solution for 20 minutes and washed with warm water, and then the number of migrated cells was counted. In the case of the migration assay, the same procedure as above was carried out without coating the insert plate. The number of cells migrated through the insert plate in the control and the gastric cancer and lung cancer cell lines transfected with MET or IGSF1 siRNA was counted and verified.
# MMP9 = MMP9 expression after miRNA transfection; format: cell-based, human; conditions: SNU638; lower panel of FIG. 6D
# Description: Furthermore, as shown in the lower panel of FIG. 6D, the transfection of gastric cancer cell line SNU638 with mir-34a or mir-34c inhibited the migration of cells and decreased the expression of MMP9.
# pMET = pMET expression after miRNA/antagomir transfection, lung cancer cells; format: cell-based, human; conditions: lung cancer cell lines HCC827 and H1944
# IGSF1 [17] = assay: IGSF1 expression after miRNA transfection, lung cancer cells; format: cell-based, human; conditions: lung cancer cell lines HCC827 and H1944
# [18] = MKN45 and SNU638, lower panel of FIG. 6B
# [19] = cell line SNU638, real-time PCR, upper panel of FIG. 6B
Molecule,cell growth [3],number of colonies [4],cell growth [5],luciferase activity of MET (MET [10]),luciferase activity of IGSF1 (IGSF1 [11]),expression of IGSF1 (IGSF1 [12]; [18]),expression of IGSF1 (IGSF1 [12]; [19]),expression of c-MET (MET [13]),expression of MET (MET [13]),growth of cancer cells [14],expression of the relevant signaling pathway [15],migration of cells [16],cell migration [16],inhibition of the invasion of cells (gastric cancer cell line),expression of MMP9 (MMP9),expression of pMET (pMET),expression of IGSF1 (IGSF1 [17]),other results
Cc1[nH]c(/C=C2\C(=O)Nc3ccc(S(=O)(=O)Cc4c(Cl)cccc4Cl)cc32)c(C)c1C(=O)N1CCC[C@@H]1CN1CCCC1 [PHA665752],–,–,–,–,–,–,–,–,–,–,–,–,–,–,–,–,–,"induction of apoptosis ([1]; trypan blue exclusion, treatment at each concentration): induction of apoptosis; response to the MET inhibitor ([1]; with inhibition of the expression of IGSF1): increased; expression of cleaved caspase 3 (cleaved caspase 3): increased"
"IGSF1 shRNA: shRNA against IGSF1, SEQ ID NO: 6, 5′-CAAAGAUGGAAGUGAAAUA UCUCUAUUUCACUUCCAUCUUUGUU-3′ (CAAAGAUGGAAGUGAAAUAUCUCUAUUUCACUUCCAUCUUUGUU; siRNA; shRNA hairpin, further chemistry not given here)",inhibited,decreased,inhibited,–,–,–,–,–,–,–,–,–,–,–,–,–,–,phosphorylation of MET (phosphorylation of MET): decreased; expression of MET (MET [2]): decreased
"MET shRNA: shRNA against MET, SEQ ID NO: 7, 5′-GCCAGCCUGAAUGAUGACAUCUCUGUCAUCAUUCAGGCUGGCUU-3′ (siRNA; shRNA hairpin, further chemistry not given here)",inhibited,decreased,inhibited,–,–,–,–,–,–,–,–,–,–,–,–,–,–,expression of IGSF1 (IGSF1 [6]): decreased; expression of IGSF1 (IGSF1 [7]): decreased
"MET siRNA: siRNA against MET, SEQ ID NO: 5, 5′-AAAGATAAACCTCTCATAATG-3′ (AAAGAUAAACCUCUCAUAAUG; listed as RNA, chemistry not given here)",–,–,–,–,–,–,–,–,–,–,–,–,–,–,–,–,–,invasion [8]: inhibited; migration [9]: inhibited
"miR-34a: Human miRNA-34a, SEQ ID NO: 1, UGGCAGUGUCUUAGCUGGUUGU, purchased from Thermo Fisher Scientific (listed as RNA, chemistry not given here)",–,–,–,inhibited only in the wild type,inhibited only in the wild type,inhibited,decreased,inhibited,decreased,significantly inhibited,decreased,inhibited,inhibited,about 50%,decreased,decreased,decreased,–
"miR-34c: Human miRNA-34c, SEQ ID NO: 2, AGGCAGUGUAGUUAGCUGAUUGC, purchased from Thermo Fisher Scientific (listed as RNA, chemistry not given here)",–,–,–,inhibited only in the wild type,inhibited only in the wild type,inhibited,decreased,inhibited,decreased,significantly inhibited,decreased,inhibited,inhibited,about 50%,decreased,decreased,decreased,–
